Where “and” joins values, the source holds several entries; their conditions need not be identical. Identical values can stand only once. Like-named read-outs stand apart in the source and are kept apart here.
Key:
[1] = Single ascending dose study, fasted and fed: safety and non-compartmental plasma PK; type: in vivo, healthy volunteers (human); conditions: for median percentage change in AUC0-inf between the fasted and fed conditions: 10 subjects
Procedure: A single ascending dose (SAD) study of the compound 100 was conducted in healthy volunteers. The compound 100 was administered as monotherapy both with and without food. The safety and pharmacokinetic profile of the single dose of the compound 100 was assessed.
Interim, blinded data were used for Pharmacokinetic (PK) study relating to food effects. With the exception of the 400 mg cohort, eight subjects were studied at each dose (single doses of 100, 200, or 800 mg of the sodium salt of the compound 100, which may be referred to herein as ITMN-191, administered in the fasting state). In the 400 mg cohort, ten subjects received single 400 mg doses of ITMN-191 under both fasted and fed conditions with a 5-day washout period between dosing. In the 100 mg cohort, subjects were sampled within 1 hour before dosing and at 0.5, 1, 1.5, 2, 2.5, 3, 4, 6, 8, 12, 18, 24, 32 and 48 hours after dosing. For subsequent cohorts, subjects were sampled within 1 hour before dosing and at 0.25, 0.5, 1, 1.5, 2, 2.5, 3, 4, 6, 8, 12, 18, 24, and 32 hours after dosing. Nominal (not actual) sampling times were used for the analysis. PK samples were analyzed using liquid chromatography-tandem mass spectrometry (LC/MS/MS with API 4000 mass spectrometer) following solid-phase extraction. The upper and lower limits of quantitation (ULOQ and LLOQ) are 100 and 0.01 ng/mL, respectively.
Pharmacokinetic parameter estimates were calculated using non-compartmental methods (implemented using Microsoft Excel®). Half-lives were determined by visual inspection of the log concentration-time plots to choose the terminal phase (minimum of three detectable observations). Using linear regression of the chosen terminal phase observations, elimination rate constants were calculated as the negative slope of the regression line and half-life as the natural log of 2 divided by the elimination rate constant.
Ten subjects received single 1600 mg doses of ITMN-191 under both fasted and fed conditions with a 5-day washout period between dosing. For each condition, subjects were sampled within 1 hour before dosing and at 0.25, 0.5, 1, 1.5, 2, 2.5, 3, 4, 6, 8, 12, 18, 24, and 32 hours after dosing. Pharmacokinetic parameter estimates were calculated using non-compartmental methods. Half-life (t1/2) was determined by visual inspection of the log concentration-time plots to choose the terminal phase (minimum of three detectable observations). Using linear regression of the chosen terminal phase observations, elimination rate constants were calculated as the negative slope and half-life as the natural log of 2 divided by the elimination rate constant.

HCV = assay: EC90 (viral sensitivity); type: cell-based, hepatitis C virus (HCV); conditions: Hepatitis C virus
[2] = Compartmental PK model fitted to plasma data of the 400 mg fed cohort; type: in vivo, healthy volunteers (human); conditions: median, compartmental PK parameter
Procedure: The compartmental model was constructed to fit the PK data from the 400 mg, fed cohort only. Candidate PK models were fit to plasma data using weighted, non-linear regression implemented in Adapt 5. (1, 2) Each subjects' data were fit separately for a total of 10 fitted profiles. Model discrimination was accomplished according to the “Rule of Parsimony” based on Akaike's Information Criterion. (3, 4)
The most robust fit to the data was obtained using a three-compartment model (one absorptive, two distributive) with first order absorption and elimination. […] No a priori assumptions regarding the number of phases were made; the fit of the observed data and the AIC were used to guide the selection of a one, two, or three-phase absorption.

[3] = Simulated steady-state plasma and liver profiles: predicted AUC0-24, Cavg, % Time>EC90, Ctrough,liver/EC90; set-up: species or system human; conditions: 8 or 12 hour dose interval
Excerpt: Fitted parameters were used to compute predicted steady-state AUC0-24 and integrated average steady-state concentrations (Cavg) in plasma and in liver. Three hypothetical liver to plasma ratios (LPR) were considered given the variability seen in various animal species: 8 to 1, 30 to 1, and 100 to 1. The LPR seen in rats was approximately 8:1, LPR in dogs was approximately 25-40:1 and LPR in monkeys was approximately 80-125:1.
Using ADAPT 5, simulated plasma profiles were generated using individual subject fitted parameters and two different dosing regimens, 800 mg Q12H and 500 mg Q8H, dosed to steady-state.
By simulating plasma concentration profiles at steady-state, it is possible to predict ITMN-191 concentrations in liver and then index these to viral sensitivity. Summary statistics for the percentage of a dosing interval for which predicted liver concentrations remain above the EC90 (% Time>EC90) and the ratio of predicted trough concentration in the liver to the EC90 (Ctrough, liver/EC90) are provided in Table 12.

[4] = individual subjects, single 1600 mg dose, Fasted
[5] = individual subjects, single 1600 mg dose, Fed

CC(C)(C)OC(=O)N[C@H]1CCCCC/C=C\[C@@H]2C[C@@]2(C(=O)NS(=O)(=O)C2CC2)NC(=O)[C@@H]2C[C@@H](OC(=O)N3Cc4cccc(F)c4C3)CN2C1=O [ITMN-191]
AUC0-inf ([1]; human, plasma, oral, 1600 mg, Harmonic Mean of 10 subjects, single 1600 mg dose, Fed, read-out: AUC0-inf): 949 ng·h/mL | Cmax ([1]; human, plasma, oral, 1600 mg, Harmonic Mean of 10 subjects, single 1600 mg dose, Fed, read-out: Cmax): 326 ng/mL | half-life ([1]; human, plasma, oral, 1600 mg, Harmonic Mean of 10 subjects, single 1600 mg dose, Fed, read-out: t½ (converted)): 2.43 h | AUC0-inf ([1]; human, plasma, oral, 1600 mg, Mean of 10 subjects, single 1600 mg dose, Fasted, read-out: AUC0-inf): 691 ng·h/mL | Cmax ([1]; human, plasma, oral, 1600 mg, Mean of 10 subjects, single 1600 mg dose, Fasted, read-out: Cmax): 622 ng/mL | half-life ([1]; human, plasma, oral, 1600 mg, Mean of 10 subjects, single 1600 mg dose, Fasted, read-out: t½ (converted)): 2.48 h | AUC0-inf ([1]; human, plasma, oral, 1600 mg, Mean of 10 subjects, single 1600 mg dose, Fed, read-out: AUC0-inf): 1070 ng·h/mL | Cmax ([1]; human, plasma, oral, 1600 mg, Mean of 10 subjects, single 1600 mg dose, Fed, read-out: Cmax): 528 ng/mL | half-life ([1]; human, plasma, oral, 1600 mg, Mean of 10 subjects, single 1600 mg dose, Fed, read-out: t½ (converted)): 2.56 h | AUC0-inf ([1]; human, plasma, oral, 1600 mg, Median of 10 subjects, single 1600 mg dose, Fasted, read-out: AUC0-inf): 737 ng·h/mL | Cmax ([1]; human, plasma, oral, 1600 mg, Median of 10 subjects, single 1600 mg dose, Fasted, read-out: Cmax): 685 ng/mL | Tmax ([1]; human, plasma, oral, 1600 mg, Median of 10 subjects, single 1600 mg dose, Fasted, read-out: Tmax): 0.5 h | half-life ([1]; human, plasma, oral, 1600 mg, Median of 10 subjects, single 1600 mg dose, Fasted, read-out: t½ (converted)): 2.21 h | AUC0-inf ([1]; human, plasma, oral, 1600 mg, Median of 10 subjects, single 1600 mg dose, Fed, read-out: AUC0-inf): 1120 ng·h/mL | Cmax ([1]; human, plasma, oral, 1600 mg, Median of 10 subjects, single 1600 mg dose, Fed, read-out: Cmax): 449 ng/mL | Tmax ([1]; human, plasma, oral, 1600 mg, Median of 10 subjects, single 1600 mg dose, Fed, read-out: Tmax): 1.75 h | half-life ([1]; human, plasma, oral, 1600 mg, Median of 10 subjects, single 1600 mg dose, Fed, read-out: t½ (converted)): 2.64 h | half-life ([1]; human, plasma, oral, 1600 mg, individual subjects, single 1600 mg dose, Fed, read-out: t½ (converted)): 3 h | half-life ([1]; human, plasma, oral, in most subjects, read-out: terminal half-life): 1 to 2 h | AUC0-inf [1, 4]: 890 ng·h/mL and 360 ng·h/mL and 529 ng·h/mL and 507 ng·h/mL and 907 ng·h/mL and 809 ng·h/mL and 753 ng·h/mL and 652 ng·h/mL and 720 ng·h/mL and 779 ng·h/mL | Cmax [1, 4]: 892 ng/mL and 225 ng/mL and 548 ng/mL and 214 ng/mL and 1000 ng/mL and 860 ng/mL and 305 ng/mL and 909 ng/mL and 822 ng/mL and 442 ng/mL | AUC0-inf [1, 5]: 1895 ng·h/mL and 583 ng·h/mL and 939 ng·h/mL and 1116 ng·h/mL and 1225 ng·h/mL and 1209 ng·h/mL and 806 ng·h/mL and 1133 ng·h/mL and 1174 ng·h/mL | Cmax [1, 5]: 1510 ng/mL and 381 ng/mL and 199 ng/mL and 100 ng/mL and 444 ng/mL and 592 ng/mL and 454 ng/mL and 346 ng/mL and 760 ng/mL and 493 ng/mL | Tmax [1, 5]: 1.5 h and 4 h and 2 h | t½ [1, 5]: 2.01 h and 2.65 h and 1.80 h and 3.35 h and 2.16 h and 2.63 h and 1.82 h and 2.70 h and 3.48 h | subjects with an increase in AUC0-inf under fed conditions ([1]; single 400 mg dose): 8 of 10 | median percentage change in AUC0-inf between the fasted and fed conditions ([1]; single 400 mg dose): 26% | subjects with an increase in AUC0-inf under fed conditions ([1]; single 1600 mg dose): 10 of 10 | median percentage change in AUC0-inf between the fasted and fed conditions ([1]; single 1600 mg dose): 54% | EC90 (HCV): 14.1 nM and 0.0106 µg/mL | half-life ([2]; human, plasma, oral, n = 10, read-out: T1/2,λz (converted)): 1.53 h | Vd/F ([2]; human, plasma, oral, n = 10, read-out: Vss/F): 2950 L | CLt/F ([2]; n = 10): 3800 L/h | Vc/F ([2]; n = 10): 1975 L | accumulation associated with multiple doses [3]: negligible

Source: patent publication US20090155209A1, “NOVEL MACROCYCLIC INHIBITORS OF HEPATITIS C VIRUS REPLICATION” (priority 2007, published 2009)
